Source: PMC6792352, “Limited Chemical Structural Diversity Found to Modulate Thyroid Hormone Receptor in the Tox21 Chemical Library” (Environmental Health Perspectives, 2019)
Where a name gives a salt, the structure may show the parent alone.

Assay: in vitro
Conditions: rat, gh3-tre-luc cells, AC50 (uM) modified / 1000

`O=c1[nH]c(=O)n([C@H]2CCCO2)cc1F` [Tegafur] and `O=c1[nH]c2cc(C(F)(F)F)c(N3CCOCC3)cc2n(CP(=O)(O)O)c1=O` [Fanapanel] cannot be ordered by CC50 at 24 h: > 90 µM for the first, > 50 µM for the second.

`CC(C)(O)C(Cl)(Cl)Cl` [1,1,1-Trichloro-2-methyl-2-propanol] and `COc1ccc(O)c(C(C)(C)C)c1` [Butylated hydroxyanisole] cannot be ordered by CC50 at 24 h: > 50 µM for the first, > 90 µM for the second.

`CCOC(=O)C(C)Oc1ccc(Oc2nc3ccc(Cl)cc3o2)cc1` (centres unmarked) [Fenoxaprop-ethyl] and `Cc1cc(CC(=O)O)c(C)n1-c1ccc(Cl)cc1` [Clopirac] cannot be ordered by CC50 at 24 h: > 90 µM for the first, > 50 µM for the second.

Going from `CCCCC=O` [Pentanal] to `CCCCN(N=O)C(=N)N[N+](=O)[O-]` [N-Butyl-N'-nitro-N-nitrosoguanidine], the CC50 at 24 h falls from > 90 µM to 56.4 µM.

`C[Si](NC1CCCCC1)(NC1CCCCC1)NC1CCCCC1` [N,N',N''-Tricyclohexyl-1-methylsilanetriamine] and `c1ccc2sc(SN(C3CCCCC3)C3CCCCC3)nc2c1` [N,N-Dicyclohexyl-2-benzothiazolesulfenamide] cannot be ordered by CC50 at 24 h: > 90 µM for the first, > 100 µM for the second.

`CO[Si](C)(OC)c1ccccc1` [Dimethoxy(methyl)phenylsilane] and `Oc1ccccc1` [Phenol] cannot be ordered by CC50 at 24 h: > 90 µM for the first, > 50 µM for the second.

`C[N+](C)=CCl` [N-(Chloromethylidene)-N-methylmethanaminium chloride] and `CCSC(=O)Cl` cannot be ordered by CC50 at 24 h: > 90 µM for the first, > 100 µM for the second.

First: Clc1ccc(C2(Cn3cncn3)OCCO2)c(Cl)c1 [Azaconazole]
Second: Cc1c(C(=O)NN2CCCCC2)nn(-c2ccc(Cl)cc2Cl)c1-c1ccc(Cl)cc1 [Rimonabant]
The CC50 at 24 h of the first is higher: > 90 µM for the first, 13.9 µM for the second.

`Nc1nc(=O)[nH]cc1F` [Flucytosine] and `Cc1ccc(Cl)cc1N` [5-Chloro-2-methylaniline] cannot be ordered by CC50 at 24 h: > 20 µM for the first, > 90 µM for the second.

`CCCCCCCCCCCBr` [1-Bromoundecane] and `CCCCCCCCCCCO` [1-Undecanol] cannot be ordered by CC50 at 24 h: > 50 µM for the first, > 90 µM for the second.

`COc1ccc(-c2coc3cc(O)cc(O)c3c2=O)cc1` [Biochanin A] and `COc1cc(OC)c2ccc(=O)oc2c1` [5,7-Dimethoxy-2H-chromen-2-one] cannot be ordered by CC50 at 24 h: > 90 µM for the first, > 90 µM for the second.

`O=C(O)Cc1cccc2ccccc12` [Potassium 1-naphthaleneacetate] and `O=C(O)Cc1ccc(-c2ccccc2)cc1` [Felbinac] cannot be ordered by CC50 at 24 h: > 90 µM for the first, > 20 µM for the second.

`C/C=C(\C)C(=O)OC/C=C(\C)CCC=C(C)C` [Geranyl tiglate] and `CC(=O)CC/C=C(\C)CC/C=C(\C)CC/C=C(\C)CCC=C(C)C` [Teprenone] cannot be ordered by CC50 at 24 h: > 90 µM for the first, > 50 µM for the second.

`CCOC(=O)CCC(C)=O` [Ethyl levulinate] and `CCOC(=O)NNc1ccc(N(CC)CC(C)O)nn1` (centres unmarked) [Cadralazine] cannot be ordered by CC50 at 24 h: > 90 µM for the first, > 50 µM for the second.

`CN(CC1(C)CCCO1)S(=O)(=O)c1ccc(Cl)c(S(N)(=O)=O)c1` (centres unmarked) [Mefruside] and `CS(=O)(=O)c1ccc(C(=O)C2C(=O)CCCC2=O)c(Cl)c1COCC(F)(F)F` [Tembotrione] cannot be ordered by CC50 at 24 h: > 50 µM for the first, > 90 µM for the second.

`CCCC[C@@H](CC)COC(=O)c1ccccc1C(=O)OC[C@@H](CC)CCCC` [Di(2-ethylhexyl) phthalate] and `CC(C)C(=O)OCCOc1ccccc1` [Phenoxyethyl isobutyrate] cannot be ordered by CC50 at 24 h: > 90 µM for the first, > 90 µM for the second.

`CCC(=O)/C=C/C1C(C)=CCCC1(C)C` (centres unmarked) [Methylionone] and `CC1(C)CO[C@@H](CC(=O)O)CN1` [SCH 50911] cannot be ordered by CC50 at 24 h: > 90 µM for the first, > 50 µM for the second.

`CC(C)C[P+](C)(CC(C)C)CC(C)C` [Triisobutylmethylphosphonium tosylate] and `CCCCCCCCCC#N` [Decanenitrile] cannot be ordered by CC50 at 24 h: > 90 µM for the first, > 90 µM for the second.

`O=C1NCCN1c1ncc([N+](=O)[O-])s1` [Niridazole] and `O=[N+]([O-])c1c2ccccc2cc2ccccc12` [9-Nitroanthracene] cannot be ordered by CC50 at 24 h: > 20 µM for the first, > 90 µM for the second.

First: O=C(Oc1ccccc1)c1ccccc1 [Phenyl benzoate]
Second: Oc1ccc(Cc2ccccc2)cc1 [4-Benzylphenol]
The CC50 at 24 h of the first is higher: > 90 µM for the first, 84.1 µM for the second.

`CC(C)[C@H]1CC[C@@H](C)CC1=O` (stereo in doubt) [(2R,5R)-5-Methyl-2-(propan-2-yl)cyclohexanone] and `CN1[C@@H]2CCC[C@H]1C[C@@H](NC(=O)c1nn(C)c3ccccc13)C2` [Granisetron hydrochloride] cannot be ordered by CC50 at 24 h: > 90 µM for the first, > 50 µM for the second.

`CCCCNS(=O)(=O)c1ccc(C)cc1` [N-Butyl-p-toluenesulfonamide] and `CCNc1cc(O)ccc1C` [3-Ethylamino-4-methylphenol] cannot be ordered by CC50 at 24 h: > 90 µM for the first, > 90 µM for the second.

`CC(C)CCOC(=O)c1ccc(N(C)C)cc1` [Padimate] and `C=CC(=O)OCCN(C)C` [2-(Dimethylamino)ethyl acrylate] cannot be ordered by CC50 at 24 h: > 50 µM for the first, > 90 µM for the second.

`CS(=O)(=O)c1cc(C(F)(F)F)ccc1C(=O)c1cnoc1C1CC1` [Isoxaflutole] and `O=C(NO)C1(NS(=O)(=O)c2ccc(Oc3ccc(F)cc3)cc2)CCOCC1` [CP-544439] cannot be ordered by CC50 at 24 h: > 90 µM for the first, > 90 µM for the second.

`CCCCC(=O)O[C@H]1CC[C@H]2[C@@H]3CCc4cc(O)ccc4[C@H]3CC[C@]12C` [Estradiol valerate] and `CC(=O)OCC(=O)[C@@]1(O)CC[C@H]2[C@@H]3CCC4=CC(=O)C=C[C@]4(C)[C@@]3(F)[C@@H](O)C[C@@]21C` [Isoflupredone acetate] cannot be ordered by CC50 at 24 h: 41.5 µM for the first, > 20 µM for the second.

Going from `CN[C@@H]1[C@@H](O)[C@@H](O[C@@H]2[C@@H](O)[C@H](O[C@H]3OC(CN)=CC[C@H]3N)[C@@H](N)C[C@H]2N)OC[C@]1(C)O` [Sisomicin sulfate] to `CCCCCCCCCCCCCCCCCCNC(=O)OC1CCN(C(=O)OC[C@H](COC(=O)N(Cc2cccc[n+]2CC)C(=O)c2ccccc2OC)OC)CC1` [Minopafant], the CC50 at 24 h falls from > 20 µM to 13.6 µM.

`Fc1ccc(C(OCCN2CCN(CCCc3ccccc3)CC2)c2ccc(F)cc2)cc1` [GBR 12909 dihydrochloride] and `CN1CCN(C2Cc3ccccc3Sc3ccc(Cl)cc32)CC1` (centres unmarked) [Octoclothepine maleate] are within 1.5-fold of each other in CC50 at 24 h: 8.65 µM for the first, 7.55 µM for the second.

`CN1CCCC1` [N-Methylpyrrolidine] and `CC(=O)Oc1cccc(C(=O)O)c1OC(C)=O` [Dipyrocetyl] cannot be ordered by CC50 at 24 h: > 90 µM for the first, > 50 µM for the second.

`NC(N)=NCCCCN=C(N)N` [1,1'-Tetramethylenediguanidine sulfate] and `CCCCCCCCCCCC(=O)O` [Dodecanoic acid] cannot be ordered by CC50 at 24 h: > 50 µM for the first, > 90 µM for the second.

`OC[C@@H](O)C(O)[C@H](O)CO` [D-Arabinitol] and `CNC[C@H](O)c1ccc(O)c(O)c1` [Epinephrine bitartrate] cannot be ordered by CC50 at 24 h: > 50 µM for the first, > 90 µM for the second.

Going from `COc1ccc(C(=O)CCC(=O)O)c2ccccc12` [Menbutone] to `CCN(CC)CCNc1ccc(CO)c2sc3ccccc3c(=O)c12` [Hycanthone], the CC50 at 24 h falls from > 50 µM to 2.88 µM.

`COc1cc(C)cc(O)c1` [3-Methoxy-5-methylphenol] and `Cc1c(O)cccc1O` [2-Methyl-1,3-benzenediol] cannot be ordered by CC50 at 24 h: > 90 µM for the first, > 90 µM for the second.

Going from `N=C1N=C(N)c2ccccc21` [1H-Isoindole-1,3(2H)-diimine] to `NC(=O)c1ccncc1` [Isonicotinamide], the CC50 at 24 h rises from 35.8 µM to > 100 µM.

`COC(=O)CS` [Methyl thioglycolate] and `O=C(O)CNC(=O)CNC(=O)CNC(=O)CSC(=O)c1ccccc1` [Betiatide] cannot be ordered by CC50 at 24 h: > 90 µM for the first, > 50 µM for the second.

`CCO[Si](CCCN)(OCC)OCC` [3-Aminopropyltriethoxysilane] and `ClCC=CCCl` [1,4-Dichloro-2-butene] cannot be ordered by CC50 at 24 h: > 90 µM for the first, > 90 µM for the second.

Same assay, conditions: rat, gh3-tre-luc cells, AC50 (uM) modified / 1000, Tox21_110001=Tox21_110122; viability, 1 nM T3 present, 24 h

In the case of `CCCC(C)(COC(N)=O)COC(=O)NC(C)C` (centres unmarked) [Carisoprodol], the CC50 at 24 h is reported as > 50 µM.

Same assay, conditions: rat, gh3-tre-luc cells, AC50 (uM) modified / 1000, Tox21_110001=Tox21_110988; viability, 1 nM T3 present, 24 h

For `COC(=O)c1cncn1C(C)c1ccccc1` (centres unmarked) [Metomidate hydrochloride], the CC50 at 24 h was > 50 µM.

Same assay, conditions: rat, gh3-tre-luc cells, AC50 (uM) modified / 1000, Tox21_110001=Tox21_111817; viability, 1 nM T3 present, 24 h

In the case of `O=C1C[N+]([O-])=C(c2ccccc2)c2cc(Cl)ccc2N1` [Demoxepam], the CC50 at 24 h is reported as > 50 µM.

Same assay, conditions: rat, gh3-tre-luc cells, AC50 (uM) modified / 1000, Tox21_110001=Tox21_111833; viability, 1 nM T3 present, 24 h

With `c1csc(C2(N3CCCCC3)CCCCC2)c1` [Tenocyclidine] the CC50 at 24 h was > 50 µM.

Same assay, conditions: rat, gh3-tre-luc cells, AC50 (uM) modified / 1000, Tox21_110001=Tox21_112022; viability, 1 nM T3 present, 24 h

In the case of `C[C@@H](CO)NC(=O)[C@@H]1C=C2c3cccc4[nH]cc(c34)C[C@H]2N(C)C1` [Ergonovine], the CC50 at 24 h is reported as > 50 µM.

Same assay, conditions: rat, gh3-tre-luc cells, AC50 (uM) modified / 1000, Tox21_110001=Tox21_112870; viability, 1 nM T3 present, 24 h

For `Cc1nc2ccccc2c(=O)n1-c1ccccc1Cl` [Mecloqualone], the CC50 at 24 h was 42.7 µM.

Same assay, conditions: rat, gh3-tre-luc cells, AC50 (uM) modified / 1000, Tox21_110001=Tox21_200060; viability, 1 nM T3 present, 24 h

In the case of `CC(=O)C(C)(C)C` [3,3-Dimethyl-2-butanone], the CC50 at 24 h is reported as > 100 µM.

Same assay, conditions: rat, gh3-tre-luc cells, AC50 (uM) modified / 1000, Tox21_110001=Tox21_200623; viability, 1 nM T3 present, 24 h

For `CCCC(C)(COC(N)=O)COC(=O)NC(C)C` (centres unmarked) [Carisoprodol], the CC50 at 24 h was > 90 µM.

Same assay, conditions: rat, gh3-tre-luc cells, AC50 (uM) modified / 1000, Tox21_110001=Tox21_200667; viability, 1 nM T3 present, 24 h

With `CC(Cl)C(C)Cl` (centres unmarked) [2,3-Dichlorobutane] the CC50 at 24 h was > 90 µM.

Same assay, conditions: rat, gh3-tre-luc cells, AC50 (uM) modified / 1000, Tox21_110001=Tox21_202716; viability, 1 nM T3 present, 24 h

For `BrCCCBr` [1,3-Dibromopropane], the CC50 at 24 h was > 100 µM.

Same assay, conditions: rat, gh3-tre-luc cells, AC50 (uM) modified / 1000, Tox21_110001=Tox21_202719; viability, 1 nM T3 present, 24 h

With `CCCCCCBr` [1-Bromohexane] the CC50 at 24 h was > 100 µM.

Same assay, conditions: rat, gh3-tre-luc cells, AC50 (uM) modified / 1000, Tox21_110001=Tox21_300396; viability, 1 nM T3 present, 24 h

For `O=S(=O)(O)C(F)(F)C(F)(F)C(F)(F)C(F)(F)C(F)(F)C(F)(F)F` [Potassium perfluorohexanesulfonate], the CC50 at 24 h was > 90 µM.

Same assay, conditions: rat, gh3-tre-luc cells, AC50 (uM) modified / 1000, Tox21_110001=Tox21_300793; viability, 1 nM T3 present, 24 h

For `CON(C)C(=O)Nc1ccc(Br)c(Cl)c1` [Chlorbromuron], the CC50 at 24 h was > 90 µM.
